Laboratory results: patent publication US20250188164A1, “PHARMACEUTICAL COMPOSITION COMPRISING ANTI-CTLA4-ANTI-PD-1 BISPECIFIC ANTIBODY AND CHIAURANIB” (AKESO PHARMACEUTICALS, INC., priority 2022, published 2025)

Tested on: mixed culture of DC, PBMC and A375 cells
Experiment: Lymphocyte-tumor cell mixed reaction system, cytokine secretion by ELISA
Format: cell-based, human
Settings: A375 cells treated with 15 μM chiauranib for 48 h, BiAb004(hG1TM) 300 nM
Experimental: Freshly isolated PBMCs (from healthy donors) were adhered to the wall overnight. Mononuclear cells were collected. GM-CSF (2000 U/mL, from peprotech, Cat. No. 300-03) and IL-4 (2000 U/mL from peprotech, Cat. No. 200-04) were added. Induction was performed after 3 days of culture. For the iDC group, half of the medium was exchanged, and GM-CSF (2000 U/mL) and IL4 (2000 U/mL) were added. For the mDC group, half of the medium was exchanged, and GM-CSF (2000 U/mL), IFN-γ (50 ng/mL, from Sino Biological, Cat. No. 11725-HNAS-100) and LPS (100 ng/mL, from SIGMA, Cat. No. L6529) were added. The cells were cultured in an incubator for 2 days and frozen for later use.
A375 cells (purchased from ATCC, agency: Zhongyuan Ltd., Cat. No. CRL-1619) were digested conventionally, collected by centrifugation, and plated on 10 cm dishes at 2×10^6 cells/dish. Chiauranib (from Chipscreen Biosciences, Lot No. 210604) was added to one of the dishes to a final concentration of 15 μM, and a blank control group was set. The mixture was incubated in an incubator at 37° C. and 5% CO2 for 48 h (medium: DMEM+10% FBS). […] The cells were counted and plated as per DC:PBMC=1:10 in 96-well flat-bottom plates. […] The amounts of secretion of IFN-γ (purchased from Dakewe, Cat. No. 1110202) and IL-2 (purchased from Dakewe, Cat. No. 1110202) were measured by an ELISA kit.

## COc1ccc2c(Oc3ccc4c(C(=O)Nc5ccccc5N)cccc4c3)ccnc2c1 [chiauranib, N-(2-aminophenyl)-6-(7-methoxyquinoline-4-oxy)-1-naphthamide]
Supernatants day 3 and day 5, FIG. 17
  secretion of IFN-γ: effectively promote
Supernatants day 3 and day 5, FIG. 18
  secretion of IL-2: effectively promote
